Here are results for 14 compounds from ChEMBL document CHEMBL4396952, “Xanthone, benzophenone and bianthrone derivatives from the hypersaline lake-derived fungus Aspergillus wentii” (Bioorg Med Chem, 2019).

Data set [1] in a line: Stability of the compound by HPLC analysis. Type of data set: physicochemical.
Data set [2] has as its system Mycobacterium tuberculosis. Description: Antitubercular activity against Mycobacterium tuberculosis H37Rv. Type of data set: functional, organism-based.
The test system of data set [3] is Escherichia coli. Description: Antibacterial activity against Escherichia coli. Type of data set: functional, organism-based.
For data set [4], the system named is L5178Y. Description: Cytotoxicity against mouse L5178Y cells at 10 ug/ml. Type of data set: functional, cell-based.
Data set [5] concerns A2780S. Kind of data set: Cytotoxicity against human A2780S cells at 100 uM. The format is functional, cell-based.
In data set [6] the test system is A2780S. Description: Cytotoxicity against human A2780S cells at 10 ug/ml. The format is functional, cell-based.
For data set [7], the system named is Acinetobacter baumannii. Kind of data set: Antibacterial activity against Acinetobacter baumannii. The format is functional, organism-based.
For data set [8], the system named is Klebsiella pneumoniae. Kind of data set: Antibacterial activity against Klebsiella pneumoniae. The format is functional, organism-based.
Data set [9] has as its system Pseudomonas aeruginosa. Kind of data set: Antibacterial activity against Pseudomonas aeruginosa. The format is functional, organism-based.
In data set [10] the test system is Enterococcus faecium. Description: Antibacterial activity against Enterococcus faecium. The format is functional, organism-based.
Data set [11] relates to Staphylococcus aureus. Kind of data set: Antibacterial activity against Staphylococcus aureus ATCC 29213. The format is functional, organism-based.
Data set [12] concerns Klebsiella aerogenes. Description: Antibacterial activity against Enterobacter aerogenes. The format is functional, organism-based.
For data set [13], the system named is L5178Y. Description: Cytotoxicity against mouse L5178Y cells at 100 uM. The format is functional, cell-based.
Data set [14] concerns A2780S. Kind of data set: Cytotoxicity against human A2780S cells at 10 uM. Type of data set: functional, cell-based.
The subject of data set [15] is L5178Y. Description: Cytotoxicity against mouse L5178Y cells at 10 uM. The format is functional, cell-based.

The structures appear in SMILES notation. The source made the active and inactive calls. No cut-off for these calls is given here.

Turning to `COc1cc(O)c2c(c1)[C@@H]([C@H]1c3cc(O)cc(O)c3C(=O)c3c1cc(C)c(C(=O)OC[C@@H](O)CO)c3O)c1cc(C)cc(O)c1C2=O`, the Stability result in data set [1] is “Unstable”.

`COc1cc(O)c2c(c1)C(C1c3cc(C)cc(O)c3C(=O)c3c(O)cc(OC)cc31)c1cc(C)cc(O)c1C2=O` (stereo not given): the Stability result in data set [1] is listed as “Unstable”.

With `COc1cc(O)c2c(c1)[C@@H]([C@@H]1c3cc(O)cc(O)c3C(=O)c3c1cc(C)c(C(=O)OC[C@@H](O)CO)c3O)c1cc(C)cc(O)c1C2=O`, in [1], the Stability entry is listed as “Unstable”.

For the compound `Cc1cc(O)c2c(=O)c3c(C(=O)O)cc(O)cc3oc2c1`, the outcome in data set [2], in data set [3], in data set [4], in data set [5], in data set [6] and in data set [7] was inactive. The outcome in [8], in [9], in data set [10], in data set [11], in data set [12] and in data set [13] was inactive. Moreover, the result in [14] and in data set [15] was inactive.

Consider `Cc1cc(=O)c2c(C)cc3cc(O)cc(O)c3c2o1`, for which the outcome in data set [2], in data set [3], in data set [4], in [5], in data set [6] and in data set [7] was inactive. The outcome in [8], in data set [9], in [10], in [11], in [12] and in data set [13] was inactive. The result in data set [14] and in data set [15] was inactive.

Turning to `COC(=O)c1cc(O)cc(O)c1C(=O)c1c(O)cc(C)cc1O`, the outcome in data set [2], in data set [3], in [4], in [5], in [6] and in [7] was inactive. Moreover, the result in data set [8], in data set [9], in [10], in data set [11], in [12] and in [13] was inactive. Further, the result in [14] and in [15] was inactive.

`Cc1cc(O)c2c(c1)C(=O)c1cc(O)cc(O)c1C2=O`: the result in [2], in data set [3], in data set [4], in data set [5], in data set [6] and in [7] was inactive. Also, the result in data set [8], in data set [9], in data set [10], in data set [11], in data set [12] and in [13] was inactive. For the same compound, the outcome in [14] and in [15] was inactive.

Turning to `COC(=O)c1cc(OC)cc(OC)c1C(=O)c1c(O)cc(C)cc1O`, the outcome in data set [2], in [3], in [4], in data set [5], in data set [6] and in data set [7] was inactive. For the same compound, the result in data set [8], in data set [9], in data set [10], in data set [11], in [12] and in data set [13] was inactive. In addition, the result in data set [14] and in data set [15] was inactive.

For the compound `COc1cc(OC)c2c(c1)[C@@H]([C@@H]1c3cc(C)cc(O)c3C(=O)c3c(OC)cc(O)cc31)c1cc(C)cc(O)c1C2=O`, in [1], the Stability result is recorded as “Unstable”.

As for `Cc1cc(O)cc(O)c1-c1cc(=O)c2c(O)cc(O)cc2o1`, the outcome in data set [2], in data set [3], in data set [4], in data set [5], in data set [6] and in [7] was inactive. Moreover, the result in [8], in [9], in [10], in [11], in data set [12] and in [13] was inactive. The result in data set [14] and in data set [15] was inactive.

On to `COc1cc(OC)c2c(c1)C(C1c3cc(C)cc(O)c3C(=O)c3c(OC)cc(OC)cc31)c1cc(C)cc(O)c1C2=O` (stereo not given), for which the Stability result in data set [1] is listed as “Unstable”.

Regarding `COc1cc(OC)c2c(c1)[C@H]([C@H]1c3cc(C)cc(O)c3C(=O)c3c(OC)cc(O)cc31)c1cc(C)cc(O)c1C2=O`, the Stability entry in data set [1] is “Unstable”.

Consider `COc1cc(O)cc2c1C(=O)c1c(O)cc(C)cc1C2=O`, for which the outcome in [2], in data set [3], in data set [4], in data set [5], in data set [6] and in data set [7] was inactive. The result in data set [8], in data set [9], in data set [10], in data set [11], in data set [12] and in [13] was inactive. Further, the outcome in [14] and in data set [15] was inactive.

For `COc1cc(OC)c2c(c1)C(C1c3cc(O)cc(O)c3C(=O)c3c1cc(C)c(C(=O)OC[C@@H](O)CO)c3O)c1cc(C)cc(O)c1C2=O` (stereo not given in full), the Stability result in data set [1] is reported as “Unstable”.
